The source of these data is ChEMBL document CHEMBL1201862, “PubChem BioAssay data set” (2004).

The source made the active and inactive calls.

For one assay, the target named is ORF 73 (Human herpesvirus 8, UniProt O40947). In words: inhibitors of C-LANA binding to LBS DNA, dose response, biochemical, fluorescence polarization, cherry-picked samples (AID 504725).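 Note: fluorescence polarization of a labeled DNA duplex reporting LANA DNA binding; potency is for inhibitors that block LANA binding to the DNA.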 On the set-up: species or system Human gammaherpesvirus 8.
Another assay concerns the target Keap1/Nrf2 (Homo sapiens, UniProt Q14145). In words: Keap1-Nrf2 protein-protein interaction inhibitors, dose response, biochemical, fluorescence polarization, cherry-picked samples (AID 588683).
For assay [1], the target named is Peroxisome proliferator-activated receptor gamma/Nuclear receptor coactivator 3 (Homo sapiens, UniProt P37231). In words: TR-FRET dose response biochemical High Throughput Screening assay for agonists of the steroid receptor coactivator 3 (SRC-3) recruitment by the peroxisome proliferator-activated receptor gamma (PPAR gamma): non-selective agonists. [Related pubchem assays: 1301 (Confirmation screen.), 1048 (Primary screen.)]. It counts as functional.

The target of assay [2] is Peroxisome proliferator-activated receptor gamma/Nuclear receptor coactivator 1 (Homo sapiens, UniProt P37231). Put plainly: TR-FRET dose response biochemical High Throughput Screening assay for agonists of the steroid receptor coactivator 1 (SRC-1) recruitment by the peroxisome proliferator-activated receptor gamma (PPAR gamma): non-selective agonists. [Related pubchem assays (depositor defined):AID1300, AID1808, AID504735, AID631]. Type of assay: protein assay.

The target in assay [3] is Peroxisome proliferator-activated receptor gamma/Nuclear receptor coactivator 2 (Homo sapiens, UniProt P37231). Put plainly: TR-FRET dose response biochemical High Throughput Screening assay for agonists of the steroid receptor coactivator 2 (SRC-2) recruitment by the peroxisome proliferator-activated receptor gamma (PPAR gamma): non-selective agonists. [Related pubchem assays: 1297, 1032 ]. It counts as functional.

A short description of assay [4]: NIH-3T3 fibroblast cytotoxicity, dose response, cytotoxicity control, cell-based, fluorescence, Alamar Blue, secondary assay (AID 2327).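 Note: NIH-3T3 mouse fibroblasts cultured with fluconazole at 8 µg/mL.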 Type of assay: functional.
Assay [5] can be described thus: C. albicans growth with fluconazole, confirmation, fluorescence, retest (AID 2467). Type of assay: functional, cell-based.
Assay [6] has as its target T1, Zinc finger protein mex-5 (Caenorhabditis elegans, UniProt Q9XUB2).
T1 sequence (Q9XUB2 whole entry): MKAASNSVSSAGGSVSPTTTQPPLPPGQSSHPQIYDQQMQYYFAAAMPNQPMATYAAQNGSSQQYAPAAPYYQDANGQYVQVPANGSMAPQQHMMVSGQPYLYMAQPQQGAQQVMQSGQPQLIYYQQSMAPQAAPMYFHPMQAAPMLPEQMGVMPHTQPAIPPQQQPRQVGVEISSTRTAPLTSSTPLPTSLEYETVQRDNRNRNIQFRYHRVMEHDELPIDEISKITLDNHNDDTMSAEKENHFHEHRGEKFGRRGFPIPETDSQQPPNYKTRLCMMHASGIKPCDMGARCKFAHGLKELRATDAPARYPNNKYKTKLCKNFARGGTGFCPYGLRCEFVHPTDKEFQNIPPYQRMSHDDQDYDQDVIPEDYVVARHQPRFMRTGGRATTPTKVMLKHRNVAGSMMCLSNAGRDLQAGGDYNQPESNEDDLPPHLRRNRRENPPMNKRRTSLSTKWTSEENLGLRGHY
In words: MEX-5/TCR-2 RNA interaction inhibitors, dose response, biochemical, C. elegans, fluorescence polarization (AID 1960).

Assay [7] deals with UDP-galactopyranose mutase (Mycobacterium tuberculosis, UniProt P9WIQ1). Put plainly: Inhibitors of Mycobacterium tuberculosis UDP-galactopyranose mutase (UGM) enzyme Measured in Biochemical System Using Plate Reader - 2105-02_Inhibitor_Dose_CherryPick_Activity. [Related pubchem assays (depositor defined):AID504439].
The target in assay [8] is T2, RNA-binding protein pos-1 (Caenorhabditis elegans, UniProt G5EF15).
T2 sequence (G5EF15 whole entry): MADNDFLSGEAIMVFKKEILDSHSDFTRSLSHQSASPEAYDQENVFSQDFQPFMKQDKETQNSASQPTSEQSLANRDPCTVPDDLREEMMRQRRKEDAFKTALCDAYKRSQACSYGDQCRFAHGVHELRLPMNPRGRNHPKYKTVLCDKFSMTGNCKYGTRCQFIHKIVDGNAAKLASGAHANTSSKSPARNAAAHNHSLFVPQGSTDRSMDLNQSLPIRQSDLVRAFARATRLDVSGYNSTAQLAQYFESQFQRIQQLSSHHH
In words: inhibitors of POS-1/mex-3 RNA binding, dose response, biochemical, fluorescence polarization (AID 1964).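 Note: purified POS-1 fused to maltose binding protein made in E. coli; potency of compounds blocking POS-1 binding to fluorescent RNA.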

The target of assay [9] is T3, Voltage-gated N-type calcium channel alpha-1B subunit/Amyloid beta A4 precursor protein-binding family A member 1 (Homo sapiens, UniProt Q00975+Q02410). Put plainly: disruptors of Mint-PDZ/N-type channel peptide interaction – biochemical, HTRF, set 2, SAR follow-up (AID 434980). Type of assay: functional.
In a further assay the target is SUMO E1/E2 (Homo sapiens, UniProt P63279+Q9UBE0+Q9UBT2). Put plainly: SAR analysis of SUMOylation using HTRF in an in-Vitro dose response assay. [Related pubchem assays (depositor defined):AID2006, AID2011, AID2018, AID2069, AID2658]. It counts as functional.
The target in assay [10] is T3, Voltage-gated N-type calcium channel alpha-1B subunit/Amyloid beta A4 precursor protein-binding family A member 1. In words: disruptors of Mint-PDZ/N-type channel peptide interaction – biochemical, HTRF, SAR follow-up (AID 2489). It counts as functional.
The target in another assay is Caspase-7 (Homo sapiens, UniProt P55210). In words: procaspase-7 activators, dose response, dual procaspase-3/-7 activator project, biochemical, absorbance, human (AID 504330).
A further assay addresses T4, Caspase-3 (Homo sapiens, UniProt P42574).
T4 sequence (P42574 whole entry): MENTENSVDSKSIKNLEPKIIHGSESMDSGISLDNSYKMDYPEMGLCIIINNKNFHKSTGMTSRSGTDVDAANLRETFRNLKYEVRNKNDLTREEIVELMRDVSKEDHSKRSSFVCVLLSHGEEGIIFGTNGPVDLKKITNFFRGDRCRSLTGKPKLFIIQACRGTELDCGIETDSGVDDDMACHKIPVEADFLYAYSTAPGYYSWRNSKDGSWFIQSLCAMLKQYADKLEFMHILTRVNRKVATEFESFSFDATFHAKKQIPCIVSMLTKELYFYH
Put plainly: procaspase-3 activation potency of dual hits, dose response, counter-screen for dual procaspase-3/7 activator project, biochemical, absorbance, PC-3 D3A mutant (AID 504328).

T3 sequence (Q00975 whole entry): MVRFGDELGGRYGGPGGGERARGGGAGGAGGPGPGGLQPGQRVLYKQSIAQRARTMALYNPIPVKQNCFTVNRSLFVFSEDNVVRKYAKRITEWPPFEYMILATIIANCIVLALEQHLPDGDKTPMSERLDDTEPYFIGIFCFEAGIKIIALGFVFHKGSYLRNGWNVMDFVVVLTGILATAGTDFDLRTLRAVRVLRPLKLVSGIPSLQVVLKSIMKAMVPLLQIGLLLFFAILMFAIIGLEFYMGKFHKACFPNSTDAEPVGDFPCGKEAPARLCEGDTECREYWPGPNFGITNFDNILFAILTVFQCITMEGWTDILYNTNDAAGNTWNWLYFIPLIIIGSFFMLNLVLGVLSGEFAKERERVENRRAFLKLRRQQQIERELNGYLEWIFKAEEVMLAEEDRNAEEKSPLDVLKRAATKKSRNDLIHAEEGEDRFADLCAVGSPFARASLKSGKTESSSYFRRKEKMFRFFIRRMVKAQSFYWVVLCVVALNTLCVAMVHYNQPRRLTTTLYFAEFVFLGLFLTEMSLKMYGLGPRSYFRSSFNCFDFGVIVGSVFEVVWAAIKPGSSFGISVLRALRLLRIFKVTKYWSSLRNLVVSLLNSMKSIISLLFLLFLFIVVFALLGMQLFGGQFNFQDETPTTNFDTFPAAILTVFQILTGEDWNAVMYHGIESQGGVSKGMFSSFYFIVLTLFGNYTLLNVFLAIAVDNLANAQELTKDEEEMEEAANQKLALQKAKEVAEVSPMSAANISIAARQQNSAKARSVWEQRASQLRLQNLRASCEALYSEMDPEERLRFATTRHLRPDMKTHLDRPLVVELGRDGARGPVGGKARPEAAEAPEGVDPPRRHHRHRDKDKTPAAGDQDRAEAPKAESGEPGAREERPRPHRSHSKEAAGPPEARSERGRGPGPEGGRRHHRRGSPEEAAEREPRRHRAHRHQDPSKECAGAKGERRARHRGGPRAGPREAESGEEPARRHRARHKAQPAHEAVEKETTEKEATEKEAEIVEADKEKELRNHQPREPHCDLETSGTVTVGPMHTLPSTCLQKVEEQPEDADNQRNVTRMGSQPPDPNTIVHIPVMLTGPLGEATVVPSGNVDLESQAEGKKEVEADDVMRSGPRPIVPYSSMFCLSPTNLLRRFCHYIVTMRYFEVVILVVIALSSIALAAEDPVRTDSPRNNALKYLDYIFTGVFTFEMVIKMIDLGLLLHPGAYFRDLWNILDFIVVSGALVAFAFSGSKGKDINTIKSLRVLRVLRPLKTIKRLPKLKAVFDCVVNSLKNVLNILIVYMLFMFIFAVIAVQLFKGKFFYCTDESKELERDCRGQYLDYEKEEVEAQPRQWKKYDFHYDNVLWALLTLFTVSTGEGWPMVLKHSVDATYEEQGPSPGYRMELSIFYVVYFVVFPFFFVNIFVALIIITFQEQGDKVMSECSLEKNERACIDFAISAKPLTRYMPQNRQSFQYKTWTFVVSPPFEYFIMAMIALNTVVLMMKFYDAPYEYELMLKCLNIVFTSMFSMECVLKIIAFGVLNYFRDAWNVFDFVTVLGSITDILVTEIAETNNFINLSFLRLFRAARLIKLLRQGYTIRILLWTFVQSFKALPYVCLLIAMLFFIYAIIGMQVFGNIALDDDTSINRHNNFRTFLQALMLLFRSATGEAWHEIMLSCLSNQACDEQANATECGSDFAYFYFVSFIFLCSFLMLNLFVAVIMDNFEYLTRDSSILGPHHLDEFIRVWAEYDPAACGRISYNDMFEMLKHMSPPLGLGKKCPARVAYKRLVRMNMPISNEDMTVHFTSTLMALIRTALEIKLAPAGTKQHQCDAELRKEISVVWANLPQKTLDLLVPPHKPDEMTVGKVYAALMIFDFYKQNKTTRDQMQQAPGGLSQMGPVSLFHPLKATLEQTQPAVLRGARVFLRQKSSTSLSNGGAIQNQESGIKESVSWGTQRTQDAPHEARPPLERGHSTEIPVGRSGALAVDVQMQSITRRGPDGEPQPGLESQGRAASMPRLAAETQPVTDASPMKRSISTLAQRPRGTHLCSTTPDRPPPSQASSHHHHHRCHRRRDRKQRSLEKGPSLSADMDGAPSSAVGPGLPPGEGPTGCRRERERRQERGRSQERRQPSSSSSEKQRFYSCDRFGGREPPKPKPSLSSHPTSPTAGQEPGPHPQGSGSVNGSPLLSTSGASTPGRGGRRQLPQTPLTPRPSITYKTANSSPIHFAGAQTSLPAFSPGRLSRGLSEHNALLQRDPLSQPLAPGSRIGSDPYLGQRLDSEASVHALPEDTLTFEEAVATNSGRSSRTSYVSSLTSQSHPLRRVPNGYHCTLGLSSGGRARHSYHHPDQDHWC
T3 sequence (Q02410 whole entry): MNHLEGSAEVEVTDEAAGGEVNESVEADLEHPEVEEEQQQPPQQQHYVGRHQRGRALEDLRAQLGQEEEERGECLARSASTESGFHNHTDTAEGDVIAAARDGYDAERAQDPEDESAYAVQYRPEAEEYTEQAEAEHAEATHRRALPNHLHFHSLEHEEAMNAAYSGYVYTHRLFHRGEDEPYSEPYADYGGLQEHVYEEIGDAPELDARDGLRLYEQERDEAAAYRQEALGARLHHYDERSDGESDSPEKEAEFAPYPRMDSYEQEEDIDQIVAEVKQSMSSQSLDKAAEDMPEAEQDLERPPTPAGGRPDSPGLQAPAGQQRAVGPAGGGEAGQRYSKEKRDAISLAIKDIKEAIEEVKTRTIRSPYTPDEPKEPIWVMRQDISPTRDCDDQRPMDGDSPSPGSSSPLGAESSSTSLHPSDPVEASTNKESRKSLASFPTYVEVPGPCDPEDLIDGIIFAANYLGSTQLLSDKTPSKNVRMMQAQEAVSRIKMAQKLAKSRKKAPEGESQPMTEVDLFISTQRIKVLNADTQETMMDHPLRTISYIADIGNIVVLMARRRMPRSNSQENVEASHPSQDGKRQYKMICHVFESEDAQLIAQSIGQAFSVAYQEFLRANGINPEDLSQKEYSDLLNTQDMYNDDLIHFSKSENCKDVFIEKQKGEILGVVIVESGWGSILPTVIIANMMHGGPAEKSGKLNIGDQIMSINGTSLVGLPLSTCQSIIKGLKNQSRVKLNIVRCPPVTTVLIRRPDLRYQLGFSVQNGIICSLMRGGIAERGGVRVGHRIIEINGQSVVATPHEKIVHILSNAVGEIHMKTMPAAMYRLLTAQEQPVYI
Sequence of UDP-galactopyranose mutase (P9WIQ1 whole entry): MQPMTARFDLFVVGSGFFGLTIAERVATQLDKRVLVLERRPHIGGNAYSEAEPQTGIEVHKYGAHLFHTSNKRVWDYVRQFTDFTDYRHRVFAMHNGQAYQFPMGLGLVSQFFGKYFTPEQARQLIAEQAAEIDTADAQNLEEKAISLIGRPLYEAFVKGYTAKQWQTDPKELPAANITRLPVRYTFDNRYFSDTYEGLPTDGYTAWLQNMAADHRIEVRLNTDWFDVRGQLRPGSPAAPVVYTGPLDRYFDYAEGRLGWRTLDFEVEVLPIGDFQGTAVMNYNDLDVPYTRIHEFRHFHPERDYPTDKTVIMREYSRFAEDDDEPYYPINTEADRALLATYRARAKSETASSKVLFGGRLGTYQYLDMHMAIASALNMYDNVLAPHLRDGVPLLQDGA
Sequence of SUMO E1/E2 (Q9UBE0 whole entry): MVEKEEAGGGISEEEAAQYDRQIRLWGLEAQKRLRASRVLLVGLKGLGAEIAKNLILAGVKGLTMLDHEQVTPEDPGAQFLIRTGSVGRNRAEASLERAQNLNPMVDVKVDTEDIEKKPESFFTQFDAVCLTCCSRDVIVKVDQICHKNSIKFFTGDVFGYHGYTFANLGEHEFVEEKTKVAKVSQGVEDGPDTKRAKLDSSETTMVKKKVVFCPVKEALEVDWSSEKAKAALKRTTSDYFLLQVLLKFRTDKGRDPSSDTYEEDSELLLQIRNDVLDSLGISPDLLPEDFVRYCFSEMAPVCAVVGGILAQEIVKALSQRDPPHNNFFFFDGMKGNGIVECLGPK
Sequence of SUMO E1/E2 (Q9UBT2 whole entry): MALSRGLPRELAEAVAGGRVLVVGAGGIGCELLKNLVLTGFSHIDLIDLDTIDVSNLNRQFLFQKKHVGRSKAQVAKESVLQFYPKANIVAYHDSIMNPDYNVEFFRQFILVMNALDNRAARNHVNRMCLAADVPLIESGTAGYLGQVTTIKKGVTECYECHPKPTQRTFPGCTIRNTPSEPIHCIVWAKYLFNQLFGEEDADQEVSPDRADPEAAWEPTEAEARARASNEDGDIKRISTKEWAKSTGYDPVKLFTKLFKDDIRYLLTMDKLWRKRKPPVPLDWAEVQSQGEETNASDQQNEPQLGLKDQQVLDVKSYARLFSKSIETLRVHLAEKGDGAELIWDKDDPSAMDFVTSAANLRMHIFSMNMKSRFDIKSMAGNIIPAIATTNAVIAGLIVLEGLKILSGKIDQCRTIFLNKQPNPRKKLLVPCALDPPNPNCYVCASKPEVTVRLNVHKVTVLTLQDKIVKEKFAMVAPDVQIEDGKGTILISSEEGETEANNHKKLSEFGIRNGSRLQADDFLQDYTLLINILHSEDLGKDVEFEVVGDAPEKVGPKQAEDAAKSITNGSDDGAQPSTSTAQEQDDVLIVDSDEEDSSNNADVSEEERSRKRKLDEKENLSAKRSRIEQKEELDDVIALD
Sequence of SUMO E1/E2 (P63279 whole entry): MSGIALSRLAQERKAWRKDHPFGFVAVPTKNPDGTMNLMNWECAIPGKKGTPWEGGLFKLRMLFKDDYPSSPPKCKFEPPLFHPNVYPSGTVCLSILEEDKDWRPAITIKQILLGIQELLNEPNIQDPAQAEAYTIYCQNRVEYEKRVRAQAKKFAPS

Turning to `COc1ccc(C2C(C(=O)c3cccs3)=C(O)C(=O)N2c2nncs2)cc1` (stereo not given), the AC50 at ORF 73 is 7.29 µM (active); on Keap1/Nrf2, 20.3 µM (active); in assay [7], 51.7 µM (active). The EC50 in assay [1] is > 79.4 µM (not active); in assay [2] it was > 79.4 µM (inactive); in assay [3] it was > 79.4 µM (not active); in assay [4], > 150 µM (inconclusive); in [5], > 38 µM (not active); in assay [6] it was 0.1 µM (inconclusive). Moreover, the EC50 in assay [8] was 0.549 µM (inconclusive).
On to `Cc1ccc(S(=O)(=O)N(C)C)cc1NC(=O)c1cc(-c2ccco2)nc2ccccc12`, for which the IC50 is > 56.8 µM (inactive) in [9], 4.98 µM (active) on SUMO E1/E2 and > 56.8 µM (inactive) in [10].
Consider `COc1cccc(NC(=O)c2ccnc(N3CCC(C(=O)NCc4cc(OC)ccc4OC)CC3)c2)c1`, for which the EC50 at Caspase-7 and on Caspase-3 was > 85.3 µM (inactive) in each case.
